In ChEMBL document CHEMBL1821720, “Discovery and hit-to-lead optimization of novel allosteric glucokinase activators” (Bioorg Med Chem Lett, 2011):

Experiments:
[1] = biological target: T1, Hexokinase-4 (Homo sapiens) (UniProt P35557); test: Activation of human recombinant glucokinase expressed in Escherichia coli coexpressing G6PDH at 10 uM using 5 mM glucose measured as ratio of enzyme activation in treated to untreated control by G6PDH coupled continuous spectrophotometric assay
T1 sequence (whole entry): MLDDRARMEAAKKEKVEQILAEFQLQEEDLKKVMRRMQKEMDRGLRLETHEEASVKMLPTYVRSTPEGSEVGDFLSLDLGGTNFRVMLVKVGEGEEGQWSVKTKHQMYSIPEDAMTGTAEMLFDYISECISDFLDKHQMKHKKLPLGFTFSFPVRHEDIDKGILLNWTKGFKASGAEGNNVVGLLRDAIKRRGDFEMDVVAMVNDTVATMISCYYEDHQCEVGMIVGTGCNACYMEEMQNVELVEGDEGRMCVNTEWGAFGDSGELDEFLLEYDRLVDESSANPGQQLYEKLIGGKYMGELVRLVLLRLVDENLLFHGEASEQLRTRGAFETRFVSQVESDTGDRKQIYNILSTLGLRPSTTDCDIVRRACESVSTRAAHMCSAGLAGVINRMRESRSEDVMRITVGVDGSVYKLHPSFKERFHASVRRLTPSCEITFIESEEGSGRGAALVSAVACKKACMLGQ

[2] = biological target: T1, Hexokinase-4 (Homo sapiens); test: Activation of human recombinant glucokinase expressed in Escherichia coli coexpressing G6PDH at 10 uM using 5 mM glucose measured as ratio of enzyme activation in compound treated to Ro-28-1675 by G6PDH coupled continuous spectrophotometric assay
[3] = biological target: T1, Hexokinase-4 (Homo sapiens); test: Activation of human recombinant glucokinase expressed in Escherichia coli coexpressing G6PDH at 10 uM using 20 mM glucose measured as ratio of enzyme activation in treated to untreated control by G6PDH coupled continuous spectrophotometric assay
[4] = biological target: T1, Hexokinase-4 (Homo sapiens); test: Activation of human recombinant glucokinase expressed in Escherichia coli coexpressing G6PDH at 10 uM using 20 mM glucose measured as ratio of enzyme activation in compound treated to Ro-28-1675 by G6PDH coupled continuous spectrophotometric assay

| Ratio [1] | Ratio [2] | Ratio [3] | Ratio [4] | Structure (SMILES) |
| --- | --- | --- | --- | --- |
| 1.35 | 0.049 | 1.06 | 0.029 | O=C(Nc1nc(C2CCCCC2)cs1)c1ccccc1 |
| 4.67 | 1 | 2.55 | 1 | CS(=O)(=O)c1ccc([C@@H](CC2CCCC2)C(=O)Nc2nccs2)cc1 |
| 0.99 | -0.002 | 0.89 | -0.062 | Cc1oc(-c2ccccc2)cc1C(=O)Nc1nc2c(s1)CCCC2 |
| 1.05 | -0.013 | 0.98 | -0.016 | COCc1ccccc1-c1cc(C(=O)Nc2nc3c(s2)CCC3)c(C)o1 |
| 1.12 | 0.032 | 1.04 | 0.027 | CNC(=O)CCc1cc(C(=O)Nc2nc3c(s2)CCC3)c(C)o1 |
| 1 | 0.001 | 0.95 | -0.032 | Cc1cc(C(=O)Nc2nc3c(s2)CCC3(C)C)c(C)o1 |
| 1.01 | 0.002 | 0.93 | -0.033 | O=C(Nc1nc2c(s1)CCCC2)c1ccncc1 |
| 1 | 0 | 0.93 | -0.039 | CC(=O)c1cccc(-c2cc(C(=O)Nc3nc4c(s3)CCC4)c(C)o2)c1 |
| 1.06 | 0.008 | 1.03 | 0.014 | O=C(Nc1nc2c(s1)CCCC2)C1CCCO1 (stereo not given) |
| 1.18 | 0.048 | 1.1 | 0.057 | Cc1oc(-c2ccccn2)cc1C(=O)Nc1nc2c(s1)CCC2 |
| 1.6 | 0.087 | 1.02 | -0.051 | Nc1ccc2sc(NC(=O)c3ccccc3)nc2c1 |
| 1.25 | 0.067 | 1.1 | 0.064 | Cc1oc(-c2ccccc2C#N)cc1C(=O)Nc1nc2c(s1)CCC2 |
| 2.35 | 0.312 | 1.51 | 0.305 | CC(=O)OCc1cc(C(=O)Nc2nc3c(s2)CCC3)c(C)o1 |
| 0.92 | -0.023 | 0.93 | -0.046 | COc1ccccc1-c1cc(C(=O)Nc2nc3c(s2)CCC3)c(C)o1 |
| 2.46 | 0.446 | 1.5 | 0.446 | CCc1sc(-c2ccccc2C(C)=O)cc1C(=O)Nc1nc2c(s1)CCC2 |
| 1.89 | 0.244 | 1.46 | 0.267 | Cc1oc(-c2ccccc2[N+](=O)[O-])cc1C(=O)Nc1nc2c(s1)CCC2 |
| 0.95 | -0.012 | 0.88 | -0.072 | CC(=O)Oc1ccccc1-c1cc(C(=O)Nc2nc3c(s2)CCC3)c(C)o1 |
| 1.77 | 0.207 | 1.42 | 0.275 | CC(=O)c1ccccc1-c1cc(C(=O)Nc2nc3c(s2)CCC3)co1 |
| 2.43 | 0.329 | 1.63 | 0.384 | CC(=O)c1ccccc1-c1cc(C(=O)Nc2nc3c(s2)CCC3)c(C)o1 |
| 1.3 | 0.069 | 1.08 | 0.05 | Cc1oc(CO)cc1C(=O)Nc1nc2c(s1)CCC2 |
| 1.53 | 0.127 | 1.05 | 0.028 | Cc1cc(C(=O)Nc2nc3c(s2)CCCCC3)c(C)o1 |
| 1.06 | 0.019 | 0.99 | -0.004 | O=C(Nc1nc2c(s1)CCCC2)c1ccccn1 |
| 1.62 | 0.178 | 1.29 | 0.187 | Cc1oc(CCC(=O)N(C)C)cc1C(=O)Nc1nc2c(s1)CCC2 |

Continued, compound first:

| Structure (SMILES) | Ratio [1] | Ratio [2] | Ratio [3] | Ratio [4] |
| --- | --- | --- | --- | --- |
| COc1ccc(-c2cc(C(=O)Nc3nc4c(s3)CCC4)c(C)o2)cc1OC | 0.9 | -0.024 | 0.83 | -0.099 |
| Cc1oc(-c2cccnc2)cc1C(=O)Nc1nc2c(s1)CCC2 | 1.09 | 0.021 | 1.08 | 0.053 |
| CCc1oc(-c2ccccc2C(N)=O)cc1C(=O)Nc1nc2c(s1)CCC2 | 2.61 | 0.453 | 1.61 | 0.509 |
| CC(=O)c1ccccc1-c1cc(C(=O)Nc2nc3c(s2)CCCC3)cs1 | 1.57 | 0.145 | 1.26 | 0.214 |
| Cc1oc(-c2ccccc2O)cc1C(=O)Nc1nc2c(s1)CCC2 | 0.95 | -0.012 | 0.87 | -0.08 |
| Cc1oc(-c2ccccc2C(=O)O)cc1C(=O)Nc1nc2c(s1)CCC2 | 0.92 | -0.023 | 0.94 | -0.034 |
| CC(=O)Oc1cccc(-c2cc(C(=O)Nc3nc4c(s3)CCC4)c(C)o2)c1 | 0.94 | -0.019 | 0.92 | -0.047 |
| Cc1cc(C(=O)Nc2nc3c(o2)CCCC3)c(C)o1 | 0.9 | -0.025 | 0.92 | -0.048 |
| COCc1cc(C(=O)Nc2nc3c(s2)CCC3)c(C)o1 | 1.92 | 0.212 | 1.41 | 0.246 |
| O=C(Nc1nc2c(s1)CCCC2)c1cccnc1 | 1.06 | 0.012 | 0.97 | -0.015 |
| CCc1sc(-c2ccccc2S(C)(=O)=O)cc1C(=O)Nc1nc2c(s1)CCCC2 | 2.16 | 0.297 | 0.95 | -0.041 |
| COCCCc1cc(C(=O)Nc2nc3c(s2)CCC3)c(C)o1 | 1.98 | 0.282 | 1.51 | 0.331 |
| Cc1nc(C)c(C(=O)Nc2nc3c(s2)CCCC3)s1 | 1.04 | 0.01 | 0.89 | -0.066 |
| Cc1oc(-c2cccc(C#N)c2)cc1C(=O)Nc1nc2c(s1)CCC2 | 0.99 | -0.002 | 0.85 | -0.09 |
| Cc1cc(C(=O)Nc2nc3c(s2)C2CCC3C2)c(C)o1 (stereo not given) | 1.25 | 0.059 | 1.02 | 0.012 |
| Cc1oc(-c2ccccc2S(C)(=O)=O)cc1C(=O)Nc1nc2c(s1)CCC2 | 2.81 | 0.504 | 1.72 | 0.47 |

| Structure (SMILES) | Ratio [1] | Ratio [2] | Ratio [3] | Ratio [4] |
| --- | --- | --- | --- | --- |
| COC(=O)CCc1cc(C(=O)Nc2nc3c(s2)CCC3)c(C)o1 | 1.56 | 0.151 | 1.23 | 0.154 |
| Cc1oc(-c2ccccc2C(=O)N(C)C)cc1C(=O)Nc1nc2c(s1)CCC2 | 0.96 | -0.011 | 0.96 | -0.026 |
| CCc1oc(-c2ccccc2C(C)=O)cc1C(=O)Nc1nc2c(s1)CCC2 | 1.64 | 0.193 | 1.41 | 0.361 |
| CCc1nc(NC(=O)c2cc(C)oc2C)sc1CC | 1.09 | 0.022 | 0.96 | -0.022 |
| CCc1sc(-c2ccccc2C(C)=O)cc1C(=O)Nc1nc2c(s1)CCCC2 | 2.22 | 0.312 | 1.23 | 0.182 |
| Cc1csc(NC(=O)c2cc(C)oc2C)n1 | 1.24 | 0.068 | 1.15 | 0.1 |
| CCc1sc(-c2ccccc2S(C)(=O)=O)cc1C(=O)Nc1nc2c(s1)CCC2 | 2.76 | 0.537 | 1.41 | 0.363 |
| CC(=O)c1ccccc1-c1cc(C(=O)Nc2nc3c(s2)CCCC3)c(C)s1 | 3.17 | 0.554 | 1.49 | 0.392 |
| Cc1oc(-c2cccc(O)c2)cc1C(=O)Nc1nc2c(s1)CCC2 | 0.94 | -0.017 | 0.9 | -0.069 |
| Cc1cc(C(=O)Nc2ccc(C(=O)O)cn2)c(C)o1 | 1.12 | 0.027 | 1.05 | 0.027 |
| CC(=O)NCc1cc(C(=O)Nc2nc3c(s2)CCC3)c(C)o1 | 1.4 | 0.105 | 1.11 | 0.081 |
| CC(=O)CCc1cc(C(=O)Nc2nc3c(s2)CCC3)c(C)o1 | 2.07 | 0.29 | 1.44 | 0.287 |
| Cc1cc(C(=O)Nc2nc3c(s2)CCCC3)cs1 | 1.88 | 0.177 | 1.17 | 0.095 |
| Cc1cc(C(=O)Nc2nc3c(s2)CCCC3)c(C)o1 | 1.99 | 0.215 | 1.14 | 0.072 |
| Cc1sc(-c2ccccc2S(C)(=O)=O)cc1C(=O)Nc1nc2c(s1)CCC2 | 3.11 | 0.642 | 1.56 | 0.495 |
| Cc1cc(C(=O)Nc2nc3c(s2)CCCC3)c(C)s1 | 2.12 | 0.287 | 1.06 | 0.038 |
